Results as given in ChEMBL document CHEMBL4311960, “Two optimized antimicrobial peptides with therapeutic potential for clinical antibiotic-resistant Staphylococcus aureus” (Eur J Med Chem, 2019).
Calls of active or inactive are those of the source. No cut-off for these calls is given here.

Assays:
[1] = tested on: Staphylococcus aureus; assay: Inhibition of biofilm formation in Staphylococcus aureus ATCC 25923 assessed as downregulation of spa gene at MIC incubated for 1 hr by qRT-PCR; type: functional, organism-based
[2] = tested on: Staphylococcus aureus; assay: Disruption of membrane integrity in methicillin-resistant Staphylococcus aureus ATCC 19498 assessed as invagination of cell membrane at MIC incubated for 24 hrs by scanning electron microscopy; type: functional, organism-based
[3] = tested on: Staphylococcus aureus; assay: Inhibition of biofilm formation in Staphylococcus aureus ATCC 25923 assessed as downregulation of hld gene at MIC incubated for 1 hr by qRT-PCR; type: functional, organism-based
[4] = tested on: Staphylococcus aureus; assay: Antibacterial activity against Staphylococcus aureus ATCC 29213 assessed as reduction in bacterial growth at MIC measured after 15 passages; type: functional
[5] = tested on: Staphylococcus aureus; assay: Disruption of membrane integrity in methicillin-resistant Staphylococcus aureus ATCC 18466 assessed as perforation of cell membrane at MIC incubated for 24 hrs by scanning electron microscopy; type: functional, organism-based
[6] = Stability in mouse plasma at 20 uM incubated for 24 hrs by HPLC-MS analysis; type: ADME, cell-free
[7] = tested on: Staphylococcus aureus; assay: Disruption of membrane integrity in Staphylococcus aureus ATCC 25923 assessed as invagination of cell membrane at MIC incubated for 24 hrs by scanning electron microscopy; type: functional, organism-based
[8] = tested on: Staphylococcus aureus; assay: Inhibition of biofilm formation in Staphylococcus aureus ATCC 25923 assessed as downregulation of […] gene at MIC incubated for 1 hr by qRT-PCR; type: functional, organism-based
[9] = tested on: Staphylococcus aureus; assay: Disruption of membrane integrity in Staphylococcus aureus ATCC 25923 assessed as shrinking of cell membrane at MIC incubated for 24 hrs by scanning electron microscopy; type: functional, organism-based
[10] = tested on: Staphylococcus aureus; assay: Disruption of membrane integrity in methicillin-resistant Staphylococcus aureus ATCC 18466 assessed as extravasation of cytoplasmic content at MIC incubated for 24 hrs by scanning electron microscopy; type: functional, organism-based
[11] = tested on: Staphylococcus aureus; assay: Inhibition of biofilm formation in methicillin-resistant Staphylococcus aureus ATCC 19498 assessed as downregulation of […] gene at MIC incubated for 1 hr by qRT-PCR; type: functional, organism-based
[12] = tested on: Staphylococcus aureus; assay: Antibacterial activity against methicillin-resistant Staphylococcus aureus ATCC 18466 assessed as reduction in bacterial growth incubated for 24 hrs by serial dilution method; type: functional; conditions: ATCC 18466, 24 h, read-out: MIC
[13] = tested on: Staphylococcus aureus; assay: Inhibition of biofilm formation in methicillin-resistant Staphylococcus aureus ATCC 19498 at MIC incubated for 24 hrs by scanning electron microscopy; type: functional, organism-based
[14] = tested on: Staphylococcus aureus; assay: Disruption of membrane integrity in Staphylococcus aureus ATCC 29213 assessed as cell membrane damage at MIC incubated for 24 hrs by scanning electron microscopy; type: functional, organism-based
[15] = tested on: Staphylococcus aureus; assay: Disruption of membrane integrity in Staphylococcus aureus ATCC 29213 assessed as decrease in cell volume at MIC incubated for 24 hrs by scanning electron microscopy; type: functional, organism-based
[16] = tested on: Erythrocyte; assay: Hemolytic activity in mouse Erythrocyte assessed as HC10 incubated for 1 hr; type: ADME, cell-based
[17] = tested on: Staphylococcus aureus; assay: Disruption of membrane integrity in Staphylococcus aureus ATCC 25923 assessed as extravasation of cytoplasmic content at MIC incubated for 24 hrs by scanning electron microscopy; type: functional, organism-based
[18] = tested on: Staphylococcus aureus; assay: Disruption of membrane integrity in methicillin-resistant Staphylococcus aureus ATCC 18466 assessed as invagination of cell membrane at MIC incubated for 24 hrs by scanning electron microscopy; type: functional, organism-based
[19] = Stability in mouse plasma at 20 uM incubated for 12 hrs by HPLC-MS analysis; type: ADME, cell-free
[20] = Cytotoxicity against human HEK293T cells assessed as cell viability at 5 to 640 ug/ml incubated for 48 hrs by MTT assay relative to control; type: cell-based, HEK-293T; conditions: read-out: Activity
[21] = tested on: Staphylococcus aureus; assay: Disruption of membrane integrity in Staphylococcus aureus ATCC 29213 assessed as perforation of cell membrane at MIC incubated for 24 hrs by scanning electron microscopy; type: functional, organism-based
[22] = tested on: Staphylococcus aureus; assay: Inhibition of biofilm formation in methicillin-resistant Staphylococcus aureus ATCC 19498 assessed as downregulation of hld gene at MIC incubated for 1 hr by qRT-PCR; type: functional, organism-based
[23] = tested on: Staphylococcus aureus; assay: Inhibition of biofilm formation in Staphylococcus aureus ATCC 29213 at MIC incubated for 24 hrs by scanning electron microscopy; type: functional, organism-based
[24] = tested on: Candida albicans; assay: Antifungal activity against Candida albicans ATCC 5314 assessed as reduction in fungal growth incubated for 24 hrs by serial dilution method; type: functional; conditions: ATCC 5314, 24 h, read-out: MIC
[25] = tested on: Staphylococcus aureus; assay: Inhibition of biofilm formation in methicillin-resistant Staphylococcus aureus ATCC 18466 assessed as downregulation of hld gene at MIC incubated for 1 hr by qRT-PCR; type: functional, organism-based
[26] = tested on: Staphylococcus aureus; assay: Antibacterial activity against Staphylococcus aureus ATCC 25923 assessed as reduction in bacterial growth incubated for 24 hrs by serial dilution method; type: functional; conditions: ATCC 25923, 24 h, read-out: MIC
[27] = tested on: Staphylococcus aureus; assay: Disruption of membrane integrity in methicillin-resistant Staphylococcus aureus ATCC 18466 assessed as decrease in cell volume at MIC incubated for 24 hrs by scanning electron microscopy; type: functional, organism-based
[28] = tested on: Staphylococcus aureus; assay: Disruption of membrane integrity in Staphylococcus aureus ATCC 25923 assessed as cell membrane damage at MIC incubated for 24 hrs by scanning electron microscopy; type: functional, organism-based
[29] = tested on: Staphylococcus aureus; assay: Disruption of membrane integrity in methicillin-resistant Staphylococcus aureus ATCC 19498 assessed as perforation of cell membrane at MIC incubated for 24 hrs by scanning electron microscopy; type: functional, organism-based
[30] = Hemolytic activity in mouse Erythrocyte at 640 ug/ml incubated for 1 hr relative to control; type: ADME, cell-based; conditions: mouse erythrocytes, read-out: %max
[31] = tested on: Staphylococcus aureus; assay: Disruption of membrane integrity in Staphylococcus aureus ATCC 29213 assessed as extravasation of cytoplasmic content at MIC incubated for 24 hrs by scanning electron microscopy; type: functional, organism-based
[32] = tested on: Staphylococcus aureus; assay: Inhibition of biofilm formation in methicillin-resistant Staphylococcus aureus ATCC 18466 assessed as downregulation of […] gene at MIC incubated for 1 hr by qRT-PCR; type: functional, organism-based
[33] = tested on: Streptococcus sanguinis; assay: Antibacterial activity against Streptococcus sanguinis ATCC 10556 assessed as reduction in bacterial growth incubated for 24 hrs by serial dilution method; type: functional; conditions: ATCC 10556, 24 h, read-out: MIC
[34] = tested on: Staphylococcus aureus; assay: Disruption of membrane integrity in methicillin-resistant Staphylococcus aureus ATCC 19498 assessed as decrease in cell volume at MIC incubated for 24 hrs by scanning electron microscopy; type: functional, organism-based
[35] = tested on: Staphylococcus aureus; assay: Disruption of membrane integrity in methicillin-resistant Staphylococcus aureus ATCC 18466 assessed as shrinking of cell membrane at MIC incubated for 24 hrs by scanning electron microscopy; type: functional, organism-based
[36] = tested on: Staphylococcus aureus; assay: Disruption of membrane integrity in Staphylococcus aureus ATCC 29213 assessed as shrinking of cell membrane at MIC incubated for 24 hrs by scanning electron microscopy; type: functional, organism-based
[37] = tested on: Staphylococcus aureus; assay: Disruption of membrane integrity in methicillin-resistant Staphylococcus aureus ATCC 19498 assessed as shrinking of cell membrane at MIC incubated for 24 hrs by scanning electron microscopy; type: functional, organism-based
[38] = tested on: Staphylococcus aureus; assay: Inhibition of biofilm formation in Staphylococcus aureus ATCC 29213 assessed as downregulation of hld gene at MIC incubated for 1 hr by qRT-PCR; type: functional, organism-based
[39] = tested on: Staphylococcus aureus; assay: Antibacterial activity against Staphylococcus aureus ATCC 25923 assessed as reduction in bacterial growth at MIC measured after 15 passages; type: functional

**Q.** What does the source list for H-YIRKIRRFFKKLKKILKK-NH2?
**A.** inhibition [1]: Active; Activity [2]: Active; inhibition [3]: Active; Activity [4]: Active; Activity [5]: Active; Stability [6]: Unstable; Activity [7]: Active; inhibition [8]: Active; Activity [9]: Active; Activity [10]: Active; inhibition [11]: Active; MIC [12]: 8 µg/mL; inhibition [13]: Active; Activity [14]: Active; Activity [15]: Active; HC10 [16]: 640 µg/mL; Activity [17]: Active; Activity [18]: Active; Stability [19]: Stable; viability at 48 h [20]: 70 to 80%; Activity [21]: Active; inhibition [22]: Active; inhibition [23]: Active; MIC [24]: 32 µg/mL; inhibition [25]: Active; MIC [26]: 8 µg/mL; Activity [27]: Active; Activity [28]: Active; Activity [29]: Active; hemolysis at 1 h, 640 ug/ml [30]: 10.3%; Activity [31]: Active; inhibition [32]: Active; MIC [33]: < 64 µg/mL; Activity [34]: Active; Activity [35]: Active; Activity [36]: Active; Activity [37]: Active; inhibition [38]: Active; Activity [39]: Active

**Q.** What does the source list for H-SYERKINRHFKTLKKNLKKK-NH2?
**A.** inhibition [1]: Active; Activity [2]: Active; inhibition [3]: Active; Activity [4]: Active; Activity [5]: Active; Stability [6]: Unstable; Activity [7]: Active; inhibition [8]: Active; Activity [9]: Active; Activity [10]: Active; inhibition [11]: Active; MIC [12]: 16 µg/mL; inhibition [13]: Active; Activity [14]: Active; Activity [15]: Active; HC10 [16]: > 640 µg/mL; Activity [17]: Active; Activity [18]: Active; Stability [19]: Stable; viability at 48 h [20]: 70 to 80%; Activity [21]: Active; inhibition [22]: Active; inhibition [23]: Active; MIC [24]: 64 µg/mL; inhibition [25]: Active; MIC [26]: 32 µg/mL; Activity [27]: Active; Activity [28]: Active; Activity [29]: Active; hemolysis at 1 h, 640 ug/ml [30]: 7.06%; Activity [31]: Active; inhibition [32]: Active; MIC [33]: < 64 µg/mL; Activity [34]: Active; Activity [35]: Active; Activity [36]: Active; Activity [37]: Active; inhibition [38]: Active; Activity [39]: Active
